Experimental findings from ChEMBL document CHEMBL1131203, “Second generation "peptoid" CCK-B receptor antagonists: identification and development of N-(adamantyloxycarbonyl)-alpha-methyl-(R)-tryptophan derivative (CI-1015) with an improved pharmacokinetic profile” (J Med Chem, 1998) are described below.

For assay [1], the target named is T1, Cholecystokinin receptor type A (Rattus norvegicus, UniProt P30551).
T1 sequence (P30551 whole entry): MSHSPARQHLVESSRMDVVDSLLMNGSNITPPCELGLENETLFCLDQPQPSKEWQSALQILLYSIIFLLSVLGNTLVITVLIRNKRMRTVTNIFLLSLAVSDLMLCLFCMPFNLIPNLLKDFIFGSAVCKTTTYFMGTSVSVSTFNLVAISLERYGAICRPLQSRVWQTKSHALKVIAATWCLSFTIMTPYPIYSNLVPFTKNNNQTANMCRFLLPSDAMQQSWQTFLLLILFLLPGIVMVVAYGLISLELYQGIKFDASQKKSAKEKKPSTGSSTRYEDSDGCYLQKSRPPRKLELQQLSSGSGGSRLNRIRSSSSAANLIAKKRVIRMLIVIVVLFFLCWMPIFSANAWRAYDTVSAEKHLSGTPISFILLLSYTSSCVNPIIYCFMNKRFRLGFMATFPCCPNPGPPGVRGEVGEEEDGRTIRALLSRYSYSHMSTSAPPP
The experiment in a line: Inhibitory concentration against radioligand [125I]Bolton-Hunter labeled CCK-8 to cholecystokinin type A receptor in the rat pancreas.

For assay [2], the target named is T2, Gastrin/cholecystokinin type B receptor (Mus musculus, UniProt P56481).
T2 sequence (P56481 whole entry): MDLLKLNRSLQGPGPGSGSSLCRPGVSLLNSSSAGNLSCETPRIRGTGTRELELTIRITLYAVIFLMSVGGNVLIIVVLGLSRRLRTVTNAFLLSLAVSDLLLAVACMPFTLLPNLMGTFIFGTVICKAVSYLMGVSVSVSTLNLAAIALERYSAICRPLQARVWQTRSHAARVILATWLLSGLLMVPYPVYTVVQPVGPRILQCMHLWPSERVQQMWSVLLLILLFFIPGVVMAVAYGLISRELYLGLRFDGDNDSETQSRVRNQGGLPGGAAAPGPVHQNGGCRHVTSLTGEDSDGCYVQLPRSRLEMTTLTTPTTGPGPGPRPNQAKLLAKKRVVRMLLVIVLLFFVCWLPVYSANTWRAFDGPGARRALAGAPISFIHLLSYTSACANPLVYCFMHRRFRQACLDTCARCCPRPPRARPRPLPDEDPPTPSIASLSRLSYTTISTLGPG
The experiment in a line: Inhibitory concentration against radioligand [125I]Bolton-Hunter labeled CCK-8 to cholecystokinin type B receptor in the mouse cerebral cortex. Type of assay: tissue-based.

Assay [3] in a line: Ratio of IC50 towards CCK-A receptor and CCK-B receptor.

Take `C[C@](Cc1c[nH]c2ccccc12)(NC(=O)OC1C2CC3CC(C2)CC1C3)C(=O)N[C@H]1CCCC[C@@H]1O` (stereo partly specified): the IC50 in assay [1] was determined as 1940 nM.
For `C[C@](Cc1c[nH]c2ccccc12)(NC(=O)OC1C2CC3CC(C2)CC1C3)C(=O)NC1CC2CCC1C2` (stereo in doubt; 22) [listing 1 of 2 here], the IC50 in assay [1] stood at 1250 nM; in assay [2], 166 nM.
With `C[C@](Cc1c[nH]c2ccccc12)(NC(=O)OC1C2CC3CC(C2)CC1C3)C(=O)NC1CCCCCC1` (stereo partly specified), the Ratio in assay [3] came to 71. Further, the IC50 in assay [1] amounted to 3230 nM; in assay [2], 45.5 nM.
As for `C[C@](Cc1c[nH]c2ccccc12)(NC(=O)OC1C2CC3CC(C2)CC1C3)C(=O)NC1(CO)CCCCC1` (stereo partly specified), in assay [3], the Ratio amounted to 12.5. Further, the IC50 in assay [1] is 1510 nM; in assay [2] it was 121 nM.
Consider `C[C@](Cc1c[nH]c2ccccc12)(NC(=O)OC1C2CC3CC(C2)CC1C3)C(=O)NC1CC2CCC1C2` (stereo in doubt; 21) [listing 1 of 2 here], for which the Ratio in assay [3] was determined as 18.6.
In the case of `C[C@](Cc1c[nH]c2ccccc12)(NC(=O)OC1C2CC3CC(C2)CC1C3)C(=O)NC1CCCCC1` (stereo partly specified), the Ratio in assay [3] was 48. Besides, the IC50 in assay [1] was 2400 nM; in assay [2], 50 nM.
As for `COC[C@H]1CCCN1NC(=O)[C@@](C)(Cc1c[nH]c2ccccc12)NC(=O)OC1C2CC3CC(C2)CC1C3` (stereo partly specified), the Ratio in assay [3] was determined as 1370. The values for the IC50 in assay [1] and in assay [2] were 3430 nM and 2.5 nM, respectively.
With `C[C@](Cc1c[nH]c2ccccc12)(NC(=O)OC1C2CC3CC(C2)CC1C3)C(=O)NN1CCCCCC1` (stereo partly specified), the Ratio in assay [3] came out at 248. In addition, the IC50 in assay [1] is 3040 nM; in assay [2], 12.2 nM.
For `C[C@](Cc1c[nH]c2ccccc12)(NC(=O)OC1C2CC3CC(C2)CC1C3)C(=O)N[C@@H]1CCCCC[C@H]1O` (stereo partly specified), in assay [3], the Ratio turned out to be 267. For the same compound, the values for the IC50 in assay [1] and in assay [2] were 1240 nM and 4.65 nM, respectively.
For the compound `C[C@](Cc1c[nH]c2ccccc12)(NC(=O)OC1C2CC3CC(C2)CC1C3)C(=O)NC1CC2CCC1C2` (stereo in doubt; 21) [listing 2 of 2 here], the IC50 in assay [1] was 1460 nM; in assay [2], 78.5 nM.
`C[C@](Cc1c[nH]c2ccccc12)(NC(=O)OC1C2CC3CC(C2)CC1C3)C(=O)NC1CCCCC1O` (stereo partly specified): the IC50 in assay [1] was determined as 1380 nM.
`C[C@](Cc1c[nH]c2ccccc12)(NC(=O)OC1C2CC3CC(C2)CC1C3)C(=O)NC1CCCCC1C(=O)O` (stereo partly specified): the Ratio in assay [3] came to 708. Moreover, the IC50 in assay [1] was 701 nM; in assay [2] it was 0.99 nM.
In the same order, the values of `C[C@](Cc1c[nH]c2ccccc12)(NC(=O)OC1C2CC3CC(C2)CC1C3)C(=O)NC(Cc1ccccc1)Cc1ccccc1` (stereo partly specified) are 112, 2240 nM and 19.9 nM.
Turning to `CC1CCCCC1NC(=O)[C@@](C)(Cc1c[nH]c2ccccc12)NC(=O)OC1C2CC3CC(C2)CC1C3` (stereo partly specified), in assay [3], the Ratio came to 71.4. Moreover, the results for the IC50 in assay [1] and in assay [2] were 2780 nM and 39 nM, respectively.
In the same order, the values of `C[C@](Cc1c[nH]c2ccccc12)(NC(=O)OC1C2CC3CC(C2)CC1C3)C(=O)NC(CC(=O)O)CC(=O)O` (stereo partly specified) are 8.9, 15700 nM and 1770 nM.
In the same order, the values of `C[C@](Cc1c[nH]c2ccccc12)(NC(=O)OC1C2CC3CC(C2)CC1C3)C(=O)NC1(C(=O)O)CCCCC1` (stereo partly specified) are 18.4, 1520 nM and 83 nM.
As for `C[C@](Cc1c[nH]c2ccccc12)(NC(=O)OC1C2CC3CC(C2)CC1C3)C(=O)NN1CC2CCC(CC2)C1` (stereo partly specified), in assay [3], the Ratio stood at 238. Besides, the results for the IC50 in assay [1] and in assay [2] were 1560 nM and 6.5 nM, respectively.
With `C[C@](Cc1c[nH]c2ccccc12)(NC(=O)OC1C2CC3CC(C2)CC1C3)C(=O)NC1CC2CCC1C2` (stereo in doubt; 22) [listing 2 of 2 here], the Ratio in assay [3] worked out at 7.5.
In the case of `C[C@](Cc1c[nH]c2ccccc12)(NC(=O)OC1C2CC3CC(C2)CC1C3)C(=O)NN1CCCC1` (stereo partly specified), the Ratio in assay [3] was 82. The IC50 was found to be 10800 nM in assay [1] and 132 nM in assay [2].
In the same order, the values of `COC(=O)C1(NC(=O)[C@@](C)(Cc2c[nH]c3ccccc23)NC(=O)OC2C3CC4CC(C3)CC2C4)CCCCC1` (stereo partly specified) are 10.4, 1990 nM and 191 nM.
For the compound `C[C@](Cc1c[nH]c2ccccc12)(NC(=O)OC1C2CC3CC(C2)CC1C3)C(=O)NC1CCCCC1C#N` (stereo partly specified), the Ratio in assay [3] amounted to 429. For the same compound, the values for the IC50 in assay [1] and in assay [2] were 1500 nM and 3.5 nM, respectively.
In the same order, the values of `COC(=O)CC(CC(=O)OC)NC(=O)[C@@](C)(Cc1c[nH]c2ccccc12)NC(=O)OC1C2CC3CC(C2)CC1C3` (stereo partly specified) are 5.5, 1170 nM and 214 nM.
With `C[C@](Cc1c[nH]c2ccccc12)(NC(=O)OC1C2CC3CC(C2)CC1C3)C(=O)NN1CCCCC1` (stereo partly specified), the Ratio in assay [3] amounted to 194. For the same compound, the values for the IC50 in assay [1] and in assay [2] were 3830 nM and 19.7 nM, respectively.
In the same order, the values of `C[C@](Cc1c[nH]c2ccccc12)(NC(=O)OC1C2CC3CC(C2)CC1C3)C(=O)NC1(CO)CCCC1` (stereo partly specified) are 5.3, 1420 nM and 268 nM.
Consider `COC[C@@H]1CCCN1NC(=O)[C@@](C)(Cc1c[nH]c2ccccc12)NC(=O)OC1C2CC3CC(C2)CC1C3` (stereo partly specified), for which the Ratio in assay [3] is 105. The figures for the IC50 in assay [1] and in assay [2] were 6900 nM and 65.4 nM, respectively.
In the case of `C[C@](Cc1c[nH]c2ccccc12)(NC(=O)OC1C2CC3CC(C2)CC1C3)C(=O)CNC1CCCCC1` (stereo partly specified), in assay [3], the Ratio was determined as 10.6. Further, the IC50 in assay [1] turned out to be 3330 nM; in assay [2] it was 314 nM.
In the case of `C[C@](Cc1c[nH]c2ccccc12)(NC(=O)OC1C2CC3CC(C2)CC1C3)C(=O)N[C@H]1CCCCC[C@@H]1O` (stereo partly specified), the Ratio in assay [3] was determined as 65. In addition, the IC50 in assay [1] came to 1660 nM; in assay [2] it was 25.5 nM.
